Columns and labels:
[1] = tested on: marrow cells (mononuclear cell fraction); experiment: Proliferation-stimulating effect on marrow cell of mouse (3H-TdR uptake); format: cell-based, mouse (BALB/c); settings: percentage of control, 72 h
Summary of the method: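 Mononuclear marrow cell fraction from 7-week-old female BALB/c mouse thigh bone, 1.5×10^6 cells/ml in 10% FCS RPMI 1640, cultured with test sample 72 h at 37° C. ³H-thymidine (0.5 μCi/well) then added for 8 h; nuclear ³H-TdR uptake counted by liquid scintillation.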

[2] = tested on: marrow cells (mononuclear cell fraction); experiment: Effect on marrow cell of monkey (3H-TdR uptake); format: cell-based, croo monkey; settings: Primates, 96 h, percentage of control, 4 days
Method: Pharmacological Test 2: Effect on Marrow Cell of Monkey
Marrow cells were prepared from the humerus of a croo monkey, and an MNF obtained by fractionation using a Lymphoprep (Nycomed Pharma AS, Oslo, Norway) was used in the following experiment.
The MNF was suspended in an RPMI 1640 medium added with 10% blood plasma of a croo monkey to make its concentration 1×10^6 cells/ml.
10 μl/well of a sample with a predetermined concentration and 100 μl/well of the above-prepared MNF were placed on a round-bottomed 96 well plate, and incubated under the conditions of 37° C. and 5% CO2 for 4 days. Thereafter, 0.5 μCi/well of ^3 H-TdR was added. After 6 hours, the cells were harvested, and the amount of the ^3 H-TdR taken in the nuclei was measured by a liquid scintillation counter.

[3] = tested on: mononuclear cell fraction of human umbilical cord blood; experiment: Proliferation-stimulating effect on mononuclear cell fraction of human umbilical cord blood (3H-TdR uptake); format: cell-based; settings: 96 h, percentage of control, 4 days
Summary of the method: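 Umbilical cord blood MNF (Lymphoprep) cultured at 1×10^6 cells/ml in RPMI 1640 with 10% autologous plasma with sample for 4 days at 37° C, 5% CO2. 0.5 μCi/well 3H-TdR then added for 8 h, and nuclear uptake measured by liquid scintillation counting.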

[4] = Life-span-increasing effect on irradiation of a lethal dose of radiation; format: in vivo, mouse (BDF1); settings: 10 mice/group, 9 Gy X-ray, 0.1 mg/kg i.v. days 0, 4, 8
Method: Pharmacological Test 4: Life-Span-Increasing Effect on Irradiation of a Lethal Dose of Radiation
An experiment was carried out by using 6 week old female BDF1 mice purchased from Japan SLC Co., Ltd., with 10 mice made one group.
The entire bodies of the entire body of the mice were irradiated with 9 Gy of X-rays by using a Hitachi X-ray irradiator (MBR-1520R), and the day on which the X-ray was irradiated was referred to as "day 0".

[5] = tested on: blood platelets; experiment: Thrombocytopenia-inhibiting effect in X-ray-irradiated mice; format: in vivo, mouse (BDF1); settings: 10 days after 5 Gy X-ray; 0.1 mg/kg i.v. within 2 h; mean ± SD; vehicle per series 10.3, 6.8, 6.7; non-treatment 68.2, 96.9, 73.0
Summary of the method: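 Female BDF1 mice, 6 weeks old, six per group, given 5 Gy whole-body X-ray, then 0.1 mg/kg i.v. via tail vein within 2 hours. Platelets counted by hemocytometer in fundus-vein blood 10 days later; untreated and vehicle groups run alongside.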

[6] = tested on: blood platelets; experiment: Blood-platelet-increasing effect upon normal mouse; format: in vivo, mouse (BDF1); settings: normal mice; 6 days after 0.1 mg/kg i.v.; mean ± SD; vehicle per series 58.2, 63.0, 71.1
Summary of the method: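 Female BDF1 mice, 6 weeks old (5 per group), received test sample at 0.1 mg/kg into the caudal vein. Six days later, fundus-vein blood was taken and platelets counted on a multi-channel hemocytometer, compared against vehicle-treated animals.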

For `CCCCCCCCCCCCCCCCCCCCCCCC[C@@H](O)C(=O)N[C@@H](CO[C@H]1O[C@H](CO)[C@H](O)[C@H](O)[C@H]1O)[C@H](O)[C@H](O)CCCCCCCCCCCCCC` [Compound 25], the activity at 0.1 µg/mL ([1]; 10^-1 μg/ml) was 331%, the activity at 0.01 µg/mL ([1]; 10^-2 μg/ml) was 161% and the activity at 0.001 µg/mL ([1]; 10^-3 μg/ml) was 153%. The activity at 0.1 µg/mL ([2]; 10^-1 μg/ml) was 184%, the activity at 0.01 µg/mL ([2]; 10^-2 μg/ml) was 186% and the activity at 0.1 µg/mL ([3]; 10^-1 μg/ml) was 336%. The activity at 0.01 µg/mL ([3]; 10^-2 μg/ml) was 319%, the activity at 0.001 µg/mL ([3]; 10^-3 μg/ml) was 229% and the “Number of Surviving Mice” value ([4]; day 10, controls per series 10, 10, 10, 10, 10, 8) was 10 mice. For the same compound, the “Number of Surviving Mice” value ([4]; day 15, controls per series 8, 9, 5, 5, 7, 1) was 10 mice, the “Number of Surviving Mice” value ([4]; day 20, controls per series 4, 5, 1, 2, 3, 0) was 7 mice and the “Number of Surviving Mice” value ([4]; day 25, controls per series 3, 3, 0, 0, 2, 0) was 7 mice. For the same compound, the “Number of Surviving Mice” value ([4]; day 30, controls per series 1, 1, 0, 0, 0, 0) was 5 mice, the “Number of Surviving Mice” value ([4]; day 35, all controls 0) was 5 mice and the “Number of Surviving Mice” value ([4]; day 40, all controls 0) was 5 mice. The “Number of Blood Platelets” value [5] was 15.6 ± 5.3 × 10^4 /μl and the “Number of Blood Platelets” value [6] was 124.1 ± 14.7 × 10^4 /μl.

Reference: patent US6071884A, “Pharmaceutical compositions and therapeutic methods” (Kirin Beer Kabushiki Kaisha, priority 1992, dated 2000)
